Measurements taken from article PMC5999181, “UMP kinase activity is involved in proper chloroplast development in rice” (Photosynthesis Research, 2018).

Biological target: T1, YL2 (YL2-His) (Oryza sativa, UniProt Q5JJV9)
T1 construct: gene Os01g0965400; full-length cDNA (351 residues including putative 58-residue transit peptide) in pET44a, E. coli BL21, Ni-NTA
T1 sequence (Q5JJV9 1-351): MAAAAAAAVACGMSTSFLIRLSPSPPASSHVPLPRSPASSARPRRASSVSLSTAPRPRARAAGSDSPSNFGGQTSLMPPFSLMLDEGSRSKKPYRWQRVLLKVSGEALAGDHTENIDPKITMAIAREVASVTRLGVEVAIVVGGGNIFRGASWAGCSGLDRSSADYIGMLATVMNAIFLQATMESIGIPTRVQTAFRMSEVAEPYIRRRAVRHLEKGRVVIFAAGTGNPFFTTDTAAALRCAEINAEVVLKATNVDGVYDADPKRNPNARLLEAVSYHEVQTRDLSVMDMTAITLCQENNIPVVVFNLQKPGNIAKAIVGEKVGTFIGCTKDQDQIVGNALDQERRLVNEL
Test: Kinase-Glo luminescence (residual ATP)
Assay type: biochemical
Conditions: 0.2 mM UMP, 10 μM ATP, 10 mM MgCl2, 1 mM DTT, 50 mM Tris-HCl pH 7.5, 30 °C, 0.5 h

| Compound | Kinase-Glo luminescence (residual ATP) |
| --- | --- |
| Nc1ncnc2c1ncn2[C@@H]1O[C@H](COP(=O)(O)OP(=O)(O)OP(=O)(O)O)[C@@H](O)[C@H]1O [ATP] | decreased levels of RLU, reflecting the amount of residual ATP remaining after the UMP kinase reaction |
| O=c1ccn([C@@H]2O[C@H](COP(=O)(O)O)[C@@H](O)[C@H]2O)c(=O)[nH]1 [UMP] | confirming that YL2 has prokaryotic UMP kinase activity in vitro |
